Test results as given in PubChem BioAssay AID602160 (Broad Institute, 2011).
Results filed as inconclusive are left out.

Biological target: Plasmodium falciparum Hsp90 (expressed in yeast GR reporter strain)
Assay: decrease of GR reporter signal in PfHsp90 yeast, dose response, S. cerevisiae, beta-gal luminescence, dry powder samples (AID 602160)

| Structure (SMILES) | AC50 [µM] |
| --- | --- |
| O=S(=O)(/C=C/c1ccccc1)NC1CCCCCCC1 | 15.1 |
| O=C(CSCC(=O)N1CCCCC1)Nc1nc(-c2ccc(Cl)s2)cs1 | 19.6 |
| O=S(=O)(NC1CCCCCC1)c1ccc(Br)s1 | 10.7 |
| Cc1ccc(OCc2n[nH]c(=S)n2C2CCCCC2)cc1 | 20.2 |
